Measurements reported in ChEMBL document CHEMBL1147781, “Design, synthesis and in vitro antimalarial activity of an acylhydrazone library” (Bioorg Med Chem Lett, 2006).

Test system: Plasmodium falciparum
Experiment: Growth inhibition of chloroquine-resistant Plasmodium falciparum FcB1 at 1 uM
Format: functional

Compared with COc1ccc(O)c(/C=N/NC(=O)Cc2ccccc2)c1, COc1ccc(/C=N/NC(=O)Cc2ccccc2)c(O)c1 is lower in inhibition at 1 µM: 45% for the first, 41% for the second.

First: CCN(CC)c1ccc(/C=N/NC(=O)c2ccc(O)cc2)c(O)c1
Second: CCN(CC)c1ccc(/C=N/NC(=O)c2ccc(Cl)cc2)c(O)c1
The inhibition at 1 µM of the first is lower: 12% for the first, 45% for the second.

First: O=C(N/N=C/c1cc(Br)ccc1O)c1cccs1
Second: O=C(N/N=C/c1cc(O)ccc1O)c1cccs1
The inhibition at 1 µM of the first is higher: 38% for the first, 19% for the second.

Going from COc1ccc(C(=O)N/N=C/c2cc(Br)ccc2O)cc1 to COc1ccc(C(=O)N/N=C/c2cc(O)ccc2O)cc1, the inhibition at 1 µM rises from 29% to 39%.

First: COc1cccc(/C=N/NC(C)=O)c1O
Second: CC(=O)N/N=C/c1cccc(O)c1O
The inhibition at 1 µM of the first is higher: 33% for the first, 29% for the second.

Compared with COc1ccc(C(=O)N/N=C/c2ccc(OC)cc2O)cc1, COc1ccc(C(=O)N/N=C/c2cc(OC)ccc2O)cc1 is higher in inhibition at 1 µM: 9% for the first, 18% for the second.

CC(=O)N/N=C/c1cc(C(C)(C)C)ccc1O and CC(=O)N/N=C/c1cc(C)ccc1O are the same in inhibition at 1 µM: 32% for the first, 32% for the second.

Compared with Cc1ccc(O)c(/C=N/NC(=O)c2ccccc2)c1, O=C(N/N=C/c1cc(O)ccc1O)c1ccccc1 is lower in inhibition at 1 µM: 49% for the first, 0% for the second.

Compared with COc1ccc(C(=O)N/N=C/c2cccc(O)c2O)cc1, COc1ccc(C(=O)N/N=C/c2ccccc2O)cc1 is lower in inhibition at 1 µM: 21% for the first, 14% for the second.

Going from O=C(N/N=C/c1ccccc1O)c1ccco1 to O=C(N/N=C/c1cccc(O)c1O)c1ccco1, the inhibition at 1 µM falls from 21% to 20%.

First: COc1ccc(/C=N/NC(=O)c2ccc([N+](=O)[O-])cc2)c(O)c1
Second: COc1ccc(O)c(/C=N/NC(=O)c2ccc([N+](=O)[O-])cc2)c1
The inhibition at 1 µM of the first is higher: 45% for the first, 14% for the second.

First: COc1cccc(/C=N/NC(=O)c2ccc([N+](=O)[O-])cc2)c1O
Second: O=C(N/N=C/c1cccc(O)c1O)c1ccc([N+](=O)[O-])cc1
The inhibition at 1 µM of the first is higher: 32% for the first, 24% for the second.

First: O=C(N/N=C/c1cc(O)ccc1O)c1cccnc1
Second: O=C(N/N=C/c1ccc(O)cc1O)c1cccnc1
The inhibition at 1 µM of the first is lower: 7% for the first, 23% for the second.

First: COc1ccc(O)c(/C=N/NC(=O)c2ccco2)c1
Second: COc1ccc(/C=N/NC(=O)c2ccco2)c(O)c1
The inhibition at 1 µM of the first is lower: 33% for the first, 45% for the second.

First: CC(C)(C)c1ccc(C(=O)N/N=C/c2cc(O)ccc2O)cc1
Second: CC(C)(C)c1ccc(O)c(/C=N/NC(=O)c2ccc(O)cc2)c1
The inhibition at 1 µM of the first is higher: 38% for the first, 31% for the second.

Compared with COc1ccc(C(=O)N/N=C/c2cc(C)ccc2O)cc1, Cc1ccc(O)c(/C=N/NC(=O)c2ccc(O)cc2)c1 is lower in inhibition at 1 µM: 28% for the first, 24% for the second.

First: O=C(N/N=C/c1cc([N+](=O)[O-])ccc1O)c1ccco1
Second: O=C(N/N=C/c1cc(O)ccc1O)c1ccco1
The inhibition at 1 µM of the first is lower: 16% for the first, 21% for the second.

Going from O=C(N/N=C/c1cc([N+](=O)[O-])ccc1O)c1ccncc1 to O=C(N/N=C/c1cc([N+](=O)[O-])ccc1O)c1cccnc1, the inhibition at 1 µM rises from 15% to 19%.

Going from O=C(N/N=C/c1cc(Br)ccc1O)c1ccncc1 to O=C(N/N=C/c1cc(O)ccc1O)c1ccncc1, the inhibition at 1 µM falls from 29% to 26%.

First: COc1ccc(O)c(/C=N/NC(=O)c2ccncc2)c1
Second: COc1ccc(/C=N/NC(=O)c2ccncc2)c(O)c1
The inhibition at 1 µM of the first is lower: 34% for the first, 35% for the second.

Going from COc1ccc(O)c(/C=N/NC(=O)c2ccccc2)c1 to COc1ccc(/C=N/NC(=O)c2ccccc2)c(O)c1, the inhibition at 1 µM falls from 38% to 32%.

Compared with COc1ccc(O)c(/C=N/NC(C)=O)c1, COc1ccc(/C=N/NC(C)=O)c(O)c1 is higher in inhibition at 1 µM: 3% for the first, 4% for the second.

Compared with COc1ccc(O)c(/C=N/NC(=O)c2ccc(C(C)(C)C)cc2)c1, COc1ccc(/C=N/NC(=O)c2ccc(C(C)(C)C)cc2)c(O)c1 is lower in inhibition at 1 µM: 47% for the first, 43% for the second.

Compared with O=C(N/N=C/c1cc([N+](=O)[O-])ccc1O)c1cccs1, Cc1ccc(O)c(/C=N/NC(=O)c2cccs2)c1 is higher in inhibition at 1 µM: 21% for the first, 23% for the second.

First: CCN(CC)c1ccc(/C=N/NC(=O)c2cccnc2)c(O)c1
Second: CCN(CC)c1ccc(/C=N/NC(=O)c2ccncc2)c(O)c1
The inhibition at 1 µM of the first is lower: 2% for the first, 18% for the second.

Compared with O=C(N/N=C/c1cc(Br)ccc1O)c1ccc(O)cc1, O=C(N/N=C/c1cc(Br)ccc1O)c1ccc(Cl)cc1 is higher in inhibition at 1 µM: 10% for the first, 36% for the second.

Going from CCN(CC)c1ccc(/C=N/NC(=O)c2cccs2)c(O)c1 to CCN(CC)c1ccc(/C=N/NC(=O)c2ccco2)c(O)c1, the inhibition at 1 µM falls from 37% to 23%.

Going from CC(=O)N/N=C/c1cc([N+](=O)[O-])ccc1O to CC(=O)N/N=C/c1cc(Br)ccc1O, the inhibition at 1 µM falls from 22% to 17%.

Going from COc1ccc(O)c(/C=N/NC(=O)c2ccc(Cl)cc2)c1 to COc1ccc(/C=N/NC(=O)c2ccc(Cl)cc2)c(O)c1, the inhibition at 1 µM falls from 24% to 8%.

First: CC(C)(C)c1ccc(O)c(/C=N/NC(=O)c2cccnc2)c1
Second: CC(C)(C)c1ccc(O)c(/C=N/NC(=O)c2ccncc2)c1
The inhibition at 1 µM of the first is lower: 32% for the first, 40% for the second.

Going from CCN(CC)c1ccc(/C=N/NC(=O)c2ccc(OC)cc2)c(O)c1 to COc1ccc(C(=O)N/N=C/c2ccc(O)cc2O)cc1, the inhibition at 1 µM falls from 39% to 29%.

First: Cc1ccc(O)c(/C=N/NC(=O)c2ccncc2)c1
Second: Cc1ccc(O)c(/C=N/NC(=O)c2cccnc2)c1
The inhibition at 1 µM of the first is lower: 8% for the first, 33% for the second.

COc1ccc(O)c(/C=N/NC(=O)c2cccs2)c1 and COc1ccc(/C=N/NC(=O)c2cccs2)c(O)c1 are the same in inhibition at 1 µM: 24% for the first, 24% for the second.

First: COc1ccc(/C=N/NC(=O)c2ccc(O)cc2)c(O)c1
Second: COc1ccc(O)c(/C=N/NC(=O)c2ccc(O)cc2)c1
The inhibition at 1 µM of the first is lower: 14% for the first, 20% for the second.

Going from O=C(Cc1ccccc1)N/N=C/c1cc(O)ccc1O to Cc1ccc(O)c(/C=N/NC(=O)Cc2ccccc2)c1, the inhibition at 1 µM rises from 4% to 19%.

First: CCN(CC)c1ccc(/C=N/NC(C)=O)c(O)c1
Second: CC(=O)N/N=C/c1cc(O)ccc1O
The inhibition at 1 µM of the first is higher: 34% for the first, 25% for the second.

Compared with COc1cccc(/C=N/NC(=O)c2ccco2)c1O, COc1cccc(/C=N/NC(=O)c2cccs2)c1O is lower in inhibition at 1 µM: 41% for the first, 16% for the second.

Compared with COc1ccc(O)c(/C=N/NC(=O)c2cccnc2)c1, COc1ccc(/C=N/NC(=O)c2cccnc2)c(O)c1 is higher in inhibition at 1 µM: 24% for the first, 38% for the second.

Going from COc1cccc(/C=N/NC(=O)c2ccc(Cl)cc2)c1O to COc1cccc(/C=N/NC(=O)c2ccc(O)cc2)c1O, the inhibition at 1 µM falls from 36% to 16%.

First: CC(C)(C)c1ccc(C(=O)N/N=C/c2cc([N+](=O)[O-])ccc2O)cc1
Second: O=C(N/N=C/c1cc([N+](=O)[O-])ccc1O)c1ccc(O)cc1
The inhibition at 1 µM of the first is higher: 36% for the first, 4% for the second.

Going from O=C(N/N=C/c1cccc(O)c1O)c1cccs1 to O=C(N/N=C/c1ccc(O)cc1O)c1cccs1, the inhibition at 1 µM falls from 29% to 13%.

Going from COc1cccc(/C=N/NC(=O)Cc2ccccc2)c1O to O=C(Cc1ccccc1)N/N=C/c1cccc(O)c1O, the inhibition at 1 µM falls from 30% to 19%.

Compared with O=C(N/N=C/c1ccc(O)cc1O)c1ccc([N+](=O)[O-])cc1, O=C(N/N=C/c1cc(O)ccc1O)c1ccc([N+](=O)[O-])cc1 is higher in inhibition at 1 µM: 18% for the first, 28% for the second.

Going from COc1cccc(/C=N/NC(=O)c2ccc(C(C)(C)C)cc2)c1O to CC(C)(C)c1ccc(C(=O)N/N=C/c2cccc(O)c2O)cc1, the inhibition at 1 µM rises from 39% to 41%.

Compared with COc1ccc(C(=O)N/N=C/c2cc([N+](=O)[O-])ccc2O)cc1, O=C(N/N=C/c1cc([N+](=O)[O-])ccc1O)c1ccc(Cl)cc1 is higher in inhibition at 1 µM: 26% for the first, 31% for the second.

Going from O=C(N/N=C/c1cc(Br)ccc1O)c1cccnc1 to O=C(N/N=C/c1cc(Br)ccc1O)c1ccccc1, the inhibition at 1 µM rises from 21% to 47%.

Going from COc1cccc(/C=N/NC(=O)c2ccccc2)c1O to O=C(N/N=C/c1cccc(O)c1O)c1ccccc1, the inhibition at 1 µM rises from 10% to 30%.

Going from O=C(N/N=C/c1cccc(O)c1O)c1ccc(O)cc1 to O=C(N/N=C/c1cccc(O)c1O)c1ccc(Cl)cc1, the inhibition at 1 µM falls from 20% to 13%.

Going from O=C(N/N=C/c1ccc(O)cc1O)c1ccc(O)cc1 to O=C(N/N=C/c1cc(O)ccc1O)c1ccc(O)cc1, the inhibition at 1 µM falls from 15% to 4%.

First: O=C(N/N=C/c1cc([N+](=O)[O-])ccc1O)c1ccc([N+](=O)[O-])cc1
Second: Cc1ccc(O)c(/C=N/NC(=O)c2ccc([N+](=O)[O-])cc2)c1
The inhibition at 1 µM of the first is lower: 31% for the first, 46% for the second.

Going from COc1cccc(/C=N/NC(=O)c2ccncc2)c1O to O=C(N/N=C/c1cccc(O)c1O)c1ccncc1, the inhibition at 1 µM falls from 43% to 11%.

First: O=C(N/N=C/c1cc(O)ccc1O)c1ccc(Cl)cc1
Second: O=C(N/N=C/c1ccc(O)cc1O)c1ccc(Cl)cc1
The inhibition at 1 µM of the first is higher: 25% for the first, 16% for the second.

First: Cc1ccc(O)c(/C=N/NC(=O)c2ccco2)c1
Second: O=C(N/N=C/c1cc(Br)ccc1O)c1ccco1
The inhibition at 1 µM of the first is higher: 37% for the first, 35% for the second.

First: O=C(N/N=C/c1ccccc1O)c1ccc([N+](=O)[O-])cc1
Second: O=C(N/N=C/c1cc(Br)ccc1O)c1ccc([N+](=O)[O-])cc1
The inhibition at 1 µM of the first is lower: 4% for the first, 17% for the second.

Compared with COc1cccc(/C=N/NC(=O)c2cccnc2)c1O, O=C(N/N=C/c1cccc(O)c1O)c1cccnc1 is lower in inhibition at 1 µM: 32% for the first, 16% for the second.

Compared with O=C(N/N=C/c1cc([N+](=O)[O-])ccc1O)c1ccccc1, O=C(Cc1ccccc1)N/N=C/c1cc([N+](=O)[O-])ccc1O is lower in inhibition at 1 µM: 21% for the first, 0% for the second.

Compared with COc1ccc(C(=O)N/N=C/c2cccc(OC)c2O)cc1, CC(C)(C)c1ccc(C(=O)N/N=C/c2ccccc2O)cc1 is higher in inhibition at 1 µM: 37% for the first, 43% for the second.

Going from O=C(N/N=C/c1ccc(O)cc1O)c1ccco1 to CC(C)(C)c1ccc(O)c(/C=N/NC(=O)c2ccco2)c1, the inhibition at 1 µM rises from 13% to 14%.

Going from CC(C)(C)c1ccc(C(=O)N/N=C/c2ccc(O)cc2O)cc1 to CC(C)(C)c1ccc(C(=O)N/N=C/c2cc(C(C)(C)C)ccc2O)cc1, the inhibition at 1 µM rises from 37% to 48%.

Going from O=C(Cc1ccccc1)N/N=C/c1cc(Br)ccc1O to CC(C)(C)c1ccc(O)c(/C=N/NC(=O)Cc2ccccc2)c1, the inhibition at 1 µM falls from 33% to 14%.

Compared with CC(=O)N/N=C/c1ccccc1O, O=C(N/N=C/c1ccc(O)cc1O)c1ccccc1 is higher in inhibition at 1 µM: 0% for the first, 14% for the second.
